The values below come from publication doi:10.1101/2021.06.15.448479v1 (biorxiv, 2021).

Data set [1] addresses T1, ACER3 (Homo sapiens, UniProt Q9NUN7).
T1 sequence (Q9NUN7 1-267): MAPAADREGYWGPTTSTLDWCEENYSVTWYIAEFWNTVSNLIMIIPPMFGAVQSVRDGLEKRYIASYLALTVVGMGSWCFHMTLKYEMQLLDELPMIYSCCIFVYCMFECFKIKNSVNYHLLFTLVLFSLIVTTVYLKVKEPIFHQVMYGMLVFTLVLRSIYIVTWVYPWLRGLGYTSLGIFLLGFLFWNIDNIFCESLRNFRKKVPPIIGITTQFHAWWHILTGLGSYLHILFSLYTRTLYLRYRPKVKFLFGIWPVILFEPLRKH
As to the kind of experiment: biochemical.

The target in data set [2] is T1, ACER3. The data set can be described thus: FRETcer1 hydrolysis, FRET, crude membranes of overexpressing Sf9 cells. The format is cell-based.
Data set [3] has as its target T1, ACER3. The data set is described as above. The format is biochemical.
Substrate in data set [4]: Cc1c(Br)c(=O)oc2cc3c(cc12)OC(CC(=O)NCCCCCC(=O)N[C@@H](CO)[C@H](O)/C=C/CCCCCCCCCNc1ccc([N+](=O)[O-])c2nonc12)O3
As to the kind of experiment: cells, lysate or membranes. Conditions: detergent-purified ACER3.

`CCCCCC/C=C\CCCCCCCC(=O)O` [palmitoleic acid]: on ACER3 [1], the IC50 is 1900 nM. Regarding `CCCCNC(=O)Cc1noc(C(C)c2cccc(O)c2)n1` (stereo not shown) [Z3016340412], the IC50 against ACER3 [2] is 1210 ± 740 nM. Molecule `CCCCCCCC/C=C\CCCCCCCC(=O)O` [oleic acid] showed an IC50 on ACER3 [1] of 2300 nM.

On ACER3 [3], `CC(C)[C@H]1CC[C@H](C(=O)Nc2ccc(Cl)c(Cl)c2)CC1` [compound 03, N-(3,4-dichlorophenyl)-4-isopropylcyclohexane-1-carboxamide] came in with a concentration for half-maximal inhibition (IC50) of 710 nM.

Regarding `CCCC(C)C(=O)Nc1ccc(Cl)c(C(F)(F)F)c1` (stereo not shown) [compound 02, Compound 02], half-maximal inhibition at ACER3 [3] (IC50) was put at 700 nM.

Take `CCCCCCCCCCCCCC(=O)O` [myristic acid]: on ACER3 [1], the IC50 worked out at 9300 nM. Still for that read-out and setting: the figure for `CCCCCCCCCCCCCCCCCC(=O)O` [stearic acid] is 29300 nM.

Molecule `O=C(Nc1cnn(C2CCC2)c1)N1CCC(c2cccc(F)c2)CC1` [Z2956776388] registered an IC50 against ACER3 [2] of 1040 ± 350 nM. In the case of `CCCCC/C=C\C/C=C\CCCCCCCC(=O)O` [linoleic acid], at ACER3 [1], the 50% inhibitory concentration (IC50) was found to be 1500 nM. `Cc1noc(CCNC(=O)N2CCC(c3ccc(F)c(F)c3)CC2)n1` [Z1124621112] returned a half-maximal inhibitory concentration (IC50) on ACER3 [2] of 1310 ± 950 nM. In turn, `CCCC(C)NC(=O)c1ccc(Cl)c(Cl)c1` (stereo not shown) [NSC405020] had a 50% inhibitory concentration (IC50) on ACER3 [2] of 5290 ± 2160 nM. At ACER3 [1], `CCCCCCCCCCCCCCCC(=O)O` [palmitic acid] came in with an IC50 of 12600 nM.

B1: ACER3 (Homo sapiens) (protein)
chain: MAPAADREGYWGPTTSTLDWCEENYSVTWYIAEFWNTVSNLIMIIPPMFGAVQSVRDGLEKRYIASYLALTVVGMGSWCFHMTLKYEMQLLDELPMIYSCCIFVYCMFECFKIKNSVNYHLLFTLVLFSLIVTTVYLKVKEPIFHQVMYGMLVFTLVLRSIYIVTWVYPWLRGLGYTSLGIFLLGFLFWNIDNIFCESLRNFRKKVPPIIGITTQFHAWWHILTGLGSYLHILFSLYTRTLYLRYRPKVKFLFGIWPVILFEPLRKH
With B1, the Km in data set [4] is listed as 10.76 ± 2.03 µM.

As a reminder, the IC50 is the concentration at which inhibition is half-maximal. The term Km denotes the concentration of substrate that gives half-maximal velocity.
